Reference: ChEMBL document CHEMBL1131428, “Immunophilins: beyond immunosuppression” (J Med Chem, 1998)
pEC50, pKi: −log10 of the molar value.

Legend:
Gallus gallus = species: Gallus gallus; assay: In Vitro neurotrophic effect was measured in cultured chick DRG sensory neurons.; format: functional; conditions: read-out: ED50 (the source's name)
[1] = molecular target: Peptidyl-prolyl cis-trans isomerase FKBP1A (Homo sapiens, UniProt P62942); assay: Compound was tested for its ability to inhibit FK506 binding protein 12 rotamase activity
Mus musculus [2] = assay: Compound was evaluated for the recovery of Striatal TH immunostaining in MPTP-treated mice by concurrent treatment after 4 mg/kg sc administration.; format: functional, organism-based; parameters: dose 4 mg/kg; conditions: at 4 mg/kg
Rattus norvegicus [3] = species: Rattus norvegicus; assay: Compound was evaluated for the regrowth of Striatal dopamine neurons in 6HODA-lesioned rats at 120 days; format: functional, organism-based
Rattus norvegicus [4] = species: Rattus norvegicus; assay: Compound was evaluated for the regrowth of Striatal dopamine neurons in 6HODA-lesioned rats at 1h.; format: functional, organism-based
Rattus norvegicus [5] = species: Rattus norvegicus; assay: Compound was evaluated for the regrowth of Striatal dopamine neurons in 6HODA-lesioned rats at 28 days; format: functional, organism-based
Mus musculus [6] = assay: Compound was evaluated for the recovery of Striatal TH immunostaining in MPTP-treated mice by concurrent treatment after 40 mg/kg sc administration.; format: functional, organism-based; parameters: dose 40 mg/kg; conditions: at 40 mg/kg
Rattus norvegicus [7] = species: Rattus norvegicus; assay: Compound was evaluated for the regrowth of Striatal dopamine neurons in 6HODA-lesioned rats at 7 days; format: functional, organism-based
Rattus norvegicus [8] = species: Rattus norvegicus; assay: Compound was evaluated for the regrowth of Striatal dopamine neurons in 6HODA-lesioned rats at 60 days; format: functional, organism-based
Rattus norvegicus [9] = assay: Mean axonal area to promote nerve regeneration in rats with lesioned sciatic nerves was measured after 1 mg/kg sc daily administration.; format: functional; conditions: route subcutaneous
Rattus norvegicus [10] = assay: Mean axonal area to promote nerve regeneration in rats with lesioned sciatic nerves was measured after 2 mg/kg sc daily administration.; format: functional; conditions: route subcutaneous
Rattus norvegicus [11] = assay: Axonal regeneration rate to promote nerve regeneration in rats with lesioned sciatic nerves was measured after 5 mg/kg sc daily administration.; format: functional; conditions: route subcutaneous
Rattus norvegicus [12] = assay: Axonal regeneration rate to promote nerve regeneration in rats with lesioned sciatic nerves was measured after 10 mg/kg sc daily administration.; format: functional; conditions: route subcutaneous
Rattus norvegicus [13] = assay: Axonal regeneration rate to promote nerve regeneration in rats with lesioned sciatic nerves was measured after 1 mg/kg sc daily administration.; format: functional; conditions: route subcutaneous
Rattus norvegicus [14] = assay: Mean axonal area to promote nerve regeneration in rats with lesioned sciatic nerves was measured after 10 mg/kg sc daily administration.; format: functional; conditions: route subcutaneous
Rattus norvegicus [15] = assay: Mean axonal area to promote nerve regeneration in rats with lesioned sciatic nerves was measured after 5 mg/kg sc daily administration.; format: functional; conditions: route subcutaneous

Peptidyl-prolyl cis-trans isomerase FKBP1A, sequence (P62942 whole entry): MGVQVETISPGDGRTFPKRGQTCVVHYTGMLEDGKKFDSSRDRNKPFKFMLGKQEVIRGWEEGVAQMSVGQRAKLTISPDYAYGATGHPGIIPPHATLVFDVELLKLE

Row | pEC50 (Gallus gallus) | pKi [1] | Structure (SMILES) | other results
1 | 9.00 | 6.13 | CCC(C)(C)NC(=O)N1CCCC1C(=O)OCCCc1cccnc1 (stereo not given) | 
2 | 10.52 |  | COc1ccc(CCCCOC(=O)C2CCCCN2C(=O)C(=O)c2cc(OC)c(OC)c(OC)c2)cc1 (stereo not given) | 
3 |  | 8.52 | CC(C)(C)C(=O)C(=O)N1CCCC1C(=O)OCCCc1cccnc1 (stereo not given) | 
4 |  |  | O=C(OCCCCc1ccccc1)C1CCCCN1S(=O)(=O)c1ccccc1 (stereo not given) | Recovery (Mus musculus [2]): 29.2%
5 | 8.00 | 6.77 | CCC(C)(C)C(=O)C(=O)N1CCCC1C(=O)OCCCc1ccc2c(c1)OCO2 (stereo not given) | 
6 |  | 7.22 | CCC(C)(C)C(=O)C(=O)N1CCCCC1C(=O)OCCCCc1ccc(OC)cc1 (stereo not given) | 
7 | 9.96 | 7.11 | CC(C)(C)C(=O)C(=O)N1CCCCC1C(=O)OC1C2CC3CC(C2)CC1C3 (stereo not given) | 
8 | 10.22 |  | COc1cc(C(=O)C(=O)N2CCCCC2C(=O)OCCCc2c[nH]c3ccccc23)cc(OC)c1OC (stereo not given) | 
9 | 9.54 | 7.49 | CC(C)(C)C(=O)C(=O)N1CCCCC1C(=O)OCCCC1CCCCC1 (stereo not given) | 
10 | 9.02 |  | COc1cc(C(=O)C(=O)N2CCCCC2C(=O)OC(CCCc2ccccc2)CCc2cccnc2)cc(OC)c1OC (stereo not given) | 
11 |  |  | CCC(C)(C)C(=O)C(=O)N1CCCCC1C(=O)OC(CCc1ccccc1)CCc1ccccc1 (stereo not given) | Recovery (Mus musculus [6]): 71.6%
12 | 8.30 | 9.15 | CC[C@@H]1/C=C(/C)[C@@H](O)[C@@H](C)C[C@H](OC)[C@H]2O[C@@](O)(C(=O)C(=O)N3CCCC[C@H]3C(=O)O[C@H](/C(C)=C/[C@@H]3CC[C@@H](O)[C@H](OC)C3)[C@H](C)[C@@H](O)CC1=O)[C@H](C)C[C@@H]2OC | 
13 | 8.60 | 7.92 | CCC(C)(C)C(=O)C(=O)N1CCCCC1C(=O)OCCCc1cc(OC)ccc1OC (stereo not given) | 
14 | 10.52 |  | O=C(OCCCCc1ccccc1)C1CCCCN1S(=O)(=O)Cc1ccccc1 (stereo not given) | Recovery (Mus musculus [2]): 38%
15 | 9.30 |  | C=CC[C@@H]1/C=C(\C)CC(C)C[C@H](OC)[C@H]2O[C@@](O)(C(=O)C(=O)N3CCCC[C@H]3C(=O)O[C@H](/C(C)=C/[C@@H]3CC[C@@H](O)[C@H](OC)C3)[C@H](C)[C@@H](O)CC1=O)[C@H](C)C[C@@H]2OC (single isomer, unassigned) [TACROLIMUS ANHYDROUS] | Mean axonal area (Rattus norvegicus [9]): 67; Mean axonal area (Rattus norvegicus [10]): 83; Axonal regeneration rate (Rattus norvegicus [11]): 34; Axonal regeneration rate (Rattus norvegicus [12]): 29; Axonal regeneration rate (Rattus norvegicus [13]): 16; Mean axonal area (Rattus norvegicus [14]): 100; Mean axonal area (Rattus norvegicus [15]): 120
16 |  | 7.30 | C/C=C/C[C@@H](C)[C@@H](O)[C@H]1C(=O)N[C@@H](CC)C(=O)N(C)CC(=O)N(C)[C@@H](CC(C)C)C(=O)N[C@@H](C(C)C)C(=O)N(C)[C@@H](C)C(=O)N[C@@H](C)C(=O)N[C@H](C)C(=O)N(C)[C@@H](CC(C)C)C(=O)N(C)[C@@H](CC(C)C)C(=O)N(C)[C@@H](C(C)C)C(=O)N1C | 
17 | 9.10 | 6.35 | CCC(C)(C)C(=O)C(=O)N1CCCC1C(=O)OC/C=C/c1cc(OC)ccc1OC (stereo not given) | 
18 | 10.30 |  | COc1cc(C(=O)C(=O)N2CCCCC2C(=O)OC(CCCc2ccccc2)CCCc2ccccn2)cc(OC)c1OC (stereo not given) | 
19 | 9.00 | 6.48 | Cc1ccc(S(=O)(=O)N2CCCCC2C(=O)OC(CCCc2ccccc2)CCCc2ccccc2)cc1 (stereo not given) | 
20 |  |  | CC(C)(C)C(=O)C(=O)N1CCCCC1C(=O)OCCCc1ccccc1 (stereo not given) | Recovery (Mus musculus [6]): 32.4%
21 |  | 5.83 | O=C(OCCCc1cccnc1)C1CCCN1C(=O)NC1CCCCC1 (stereo not given) | Recovery (Mus musculus [2]): 59.8%
22 | 9.52 |  | CCC(C)(C)C(=O)C(=O)N1CCCCC1C(=O)O[C@H](CCc1ccccc1)c1ccccc1 (stereo not given in full) | 
23 | 9.09 | 6.68 | O=C(C(=O)N1CCCCC1C(=O)OCCCc1ccccc1)C1CCCCC1 (stereo not given) | 
24 |  | < 5.00 | CCOC(=O)C1CCCCN1C(=O)C(=O)OC (stereo not given) | 
25 |  | 7.14 | O=C(OCCCc1cccnc1)C1CCCN1S(=O)(=O)Cc1ccccc1 (stereo not given) | Recovery (Mus musculus [2]): 44.3%
26 | 8.70 | 6.60 | CCC(C)(C)C(=O)C(=O)N1CCCC1C(=O)OCCCc1cc(OC)ccc1OC (stereo not given) | 
27 | 10.12 | 6.71 | CCC(C)(C)C(=O)C(=O)N1CCCC1C(=O)OCCCc1ccccn1 (stereo not given) | 

Row | pEC50 (Gallus gallus) | pKi [1] | Structure (SMILES) | other results
28 | 9.30 |  | CO[C@H]1C[C@@H]2CC[C@@H](C)[C@@](O)(O2)C(=O)C(=O)N2CCCC[C@H]2C(=O)O[C@H]([C@H](C)C[C@@H]2CC[C@@H](O)[C@H](OC)C2)CC(=O)[C@H](C)/C=C(\C)[C@@H](O)[C@@H](OC)C(=O)[C@H](C)C[C@H](C)/C=C/C=C/C=C/1C [SIROLIMUS] | 
29 | 9.00 | 6.12 | O=C(C(=O)N1CCCCC1C(=O)OCCCC1CCCCC1)C1CCCCC1 (stereo not given) | 
30 | 9.52 | 6.88 | O=C(OCCCc1cccnc1)C1CCCN1C(=S)NC1CCCCC1 (stereo not given) | Recovery (Mus musculus [2]): 56.1%
31 | 9.88 | 6.97 | O=C(OC(CCCc1ccccc1)Cc1ccccc1)C1CCCCN1S(=O)(=O)Cc1ccccc1 (stereo not given) | 
32 | 8.07 | 6.89 | CCC(C)(C)C(=O)C(=O)N1CCCCC1C(=O)OCCCc1cccnc1 (stereo not given) | 
33 | 9.85 | 6.94 | O=C(OCCCc1cccnc1)C1CCCN1C(=S)NC1C2CC3CC(C2)CC1C3 (stereo not given) | Recovery (Mus musculus [2]): 52.3%
34 | 9.10 | 6.14 | O=C(C(=O)N1CCCCC1C(=O)OCCCc1cccnc1)c1ccccc1 (stereo not given) | 
35 | 10.15 | 7.15 | CCC(C)CNC(=O)N1CCCCC1C(=O)OCCCc1cccnc1 (stereo not given) | Recovery (Mus musculus [2]): 27.5%
36 | < 5.00 |  | COC(=O)C(=O)N1CCCCC1C(=O)OCCCCC1CCCCC1 (stereo not given) | 
37 | 8.22 | 6.99 | COc1ccc(CCCCOC(=O)C2CCCCN2C(=O)C(=O)C2CCCCC2)cc1 (stereo not given) | 
38 | < 5.00 | 5.10 | COC(=O)C(=O)N1CCCCC1C(=O)OCc1ccccc1 (stereo not given) | 
39 |  |  | Cc1ccc(S(=O)(=O)N2CCCCC2C(=O)OCCCCc2ccccc2)cc1 (stereo not given) | Recovery (Mus musculus [2]): 44.2%
40 | < 5.00 |  | COC(=O)C(=O)N1CCCCC1C(=O)OCCCC1CCCCC1 (stereo not given) | 
41 |  | 5.89 | CCOC(=O)C1CCCCN1C(=O)C(=O)C(C)(C)CC (stereo not given) | 
42 |  |  | CC(C)(C)C(=O)C(=O)N1CCCCC1C(=O)OC(CCCc1ccccc1)CCCc1ccccc1 (stereo not given) | Recovery (Mus musculus [6]): 43.8%
43 |  | 8.52 | O=C(C(=O)N1CCCCC1C(=O)OC(CCCc1ccccc1)CCCc1ccccc1)c1ccccc1 (stereo not given) | 
44 | 10.20 | 7.30 | O=C(C(=O)N1CCCCC1C(=O)OC(CCCc1ccccc1)CCCc1ccccn1)c1ccccc1 (stereo not given) | 
45 | < 5.00 |  | COC(=O)C(=O)N1CCCCC1C(=O)OCCCC1CCCC1 (stereo not given) | 
46 |  | 7.02 | CC(C)(C)C(=O)C(=O)N1CCCC1C(=O)OCCCc1ccccc1 (stereo not given) | 
47 | 9.77 | 7.82 | CCC(OC(=O)C1CCCCN1C(=O)C(=O)C(C)(C)CC)C(CCc1ccccc1)c1ccc(OC)cc1 (stereo not given) | 
48 |  | 7.62 | COc1ccc(CCCCOC(=O)C2CCCCN2C(=O)C(=O)C(C)(C)C)cc1 (stereo not given) | Recovery (Mus musculus [6]): 58.9%
49 | 9.00 |  | CCC(C)(C)C(=O)C(=O)N1CCCCC1C(=O)OCCCC1CCCCC1 (stereo not given) | 
50 |  | 7.60 | CCC(C)(C)C(=O)C(=O)N1CCCCC1C(=O)OCCCc1cc(OC)c(OC)c(OC)c1 (stereo not given) | 
51 |  | 6.92 | CCC(C)(C)C(=O)C(=O)N1CCCC1C(=O)OCCc1cc(OC)c(OC)c(OC)c1 (stereo not given) | 
52 |  | 8.08 | CCC(C)(C)C(=O)C(=O)N1CCCCC1C(=O)OCCC(c1ccccc1)c1ccccc1 (stereo not given) | 
53 | 9.59 | 6.71 | CCC(C)(C)C(=O)C(=O)N1CCCC1C(=O)OCCCC1CCCCC1 (stereo not given) | 
54 | 8.70 |  | O=C(C(=O)N1CCCC1C(=O)OCCCc1cccnc1)C1CCCCC1 (stereo not given) | 

Row | Structure (SMILES) | pEC50 (Gallus gallus) | pKi [1] | other results
55 | CCOC(=O)C1CCCCN1C(=O)C(C)=O (stereo not given) | < 5.00 | < 5.00 | 
56 | CCC(C)(C)C(=O)C(=O)N1CCCCC1C(=O)OCCCc1ccccc1 (stereo not given) |  | 6.60 | 
57 | CCC(C)(C)C(=O)C(=O)N1CCCC1C(=O)OCCCc1cccnc1 (stereo not given) | 10.30 | 8.12 | Recovery (Rattus norvegicus [3]): 19.5%; Recovery (Rattus norvegicus [4]): 34.2%; Recovery (Rattus norvegicus [5]): 28.1%; Recovery (Mus musculus [6]): 67.5%; Recovery (Rattus norvegicus [7]): 25.5%; Recovery (Rattus norvegicus [8]): 17.3%
58 | CCC(C)(C)C(=O)C(=O)N1CCCC1C(=O)OCCCc1ccccc1 (stereo not given) |  | 7.38 | 
59 | COC(=O)C1CCCCN1C(=O)C(=O)c1ccccc1 (stereo not given) | < 5.00 | < 5.00 | 
